Some test systems named below: CAKI-1 renal; CCRF-CEM leukemia; HCC-2998 colon; NCI-H23 lung; NCI/ADR-RES ovarian; OVCAR-4 ovarian; OVCAR-5 ovarian; SK-MEL-28 melanoma; SR leukemia; TK-10 renal; SK-MEL-2 melanoma; SK-MEL-5 melanoma.
What all share (test): DTP human tumour cell line panel, 48 h

Each structure is given as a SMILES string. Where “and” joins values, the source holds several entries; their conditions need not be identical. Equal values may be shown once.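 Where inhibition never reached the appropriate level, the endpoint shown equals the highest concentration tested. Otherwise, values were interpolated linearly from a five-concentration, 48-hour dose response in 96-well plates. GI50 is the concentration that inhibits growth by half. The concentration for full growth arrest is given as TGI.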

`CC(C)(C)Cc1cc(O)ccc1O`: the TGI (commonly the concentration at which net growth stops) was more than 100 µM with CAKI-1 renal; 93.9 µM in the assay on CCRF-CEM leukemia; more than 100 µM with HCC-2998 colon; more than 100 µM with NCI-H23 lung; 94.5 µM in the assay with NCI/ADR-RES ovarian; more than 100 µM with OVCAR-4 ovarian. The TGI with OVCAR-5 ovarian, with SK-MEL-28 melanoma, with SR leukemia and in the assay with TK-10 renal was more than 100 µM in each case.

As for `C/C(=C(/C)c1cc[n+](C)cc1)c1cc[n+](C)cc1`, the TGI in the assay with CAKI-1 renal, in the assay with CCRF-CEM leukemia, in the assay on NCI-H23 lung, with OVCAR-4 ovarian, with OVCAR-5 ovarian and in the assay on SK-MEL-2 melanoma was more than 75 µM each time. Moreover, the TGI with SK-MEL-28 melanoma, in the assay with SK-MEL-5 melanoma and in the assay on TK-10 renal was more than 75 µM each time.

Turning to `Cn1nc(S(N)(=O)=O)s/c1=N/S(=O)(=O)c1ccc(N)cc1`, the concentration for total growth inhibition (TGI) in the assay on CAKI-1 renal, in the assay with HCC-2998 colon, in the assay with NCI-H23 lung, in the assay on NCI/ADR-RES ovarian, with OVCAR-4 ovarian and in the assay with OVCAR-5 ovarian was more than 100 µM in each case. Besides, the TGI in the assay with SK-MEL-2 melanoma, in the assay with SK-MEL-28 melanoma and with TK-10 renal was more than 100 µM in each case.

Consider `C=C(C)CCN(C(=O)OC(C)(C)C)c1cc(C(C)C)co1`, for which the TGI with CAKI-1 renal, in the assay with CCRF-CEM leukemia, in the assay on HCC-2998 colon, in the assay on NCI-H23 lung, in the assay with NCI/ADR-RES ovarian and in the assay on OVCAR-4 ovarian was more than 100 µM throughout. Moreover, the TGI in the assay with OVCAR-5 ovarian, in the assay on SK-MEL-2 melanoma, in the assay on SK-MEL-28 melanoma, in the assay on SK-MEL-5 melanoma, in the assay with SR leukemia and with TK-10 renal was more than 100 µM in each case.

With `O=C(Nc1ccccc1[N+](=O)[O-])C(=O)C(C(=O)c1ccccc1-c1ccccc1)C1OC(=O)c2ccccc21` (stereo unspecified), the TGI is more than 100 µM in the assay with CAKI-1 renal; 76.1 µM with CCRF-CEM leukemia; 28.2 µM in the assay with HCC-2998 colon; 33.6 µM with NCI-H23 lung; more than 100 µM in the assay on OVCAR-4 ovarian; 36.8 µM with OVCAR-5 ovarian. In addition, the TGI worked out at 65.2 µM in the assay with SK-MEL-2 melanoma; 37.7 µM in the assay with SK-MEL-28 melanoma; 32.7 µM in the assay on SK-MEL-5 melanoma; 49 µM with SR leukemia; 47.1 µM in the assay on TK-10 renal.

Turning to `COc1ccc(-c2cc(=O)c3ccc(F)cc3[nH]2)cc1`, the concentration for total growth inhibition (TGI) in the assay with CCRF-CEM leukemia, with HCC-2998 colon, with NCI-H23 lung, in the assay with OVCAR-4 ovarian, in the assay on OVCAR-5 ovarian and with SK-MEL-28 melanoma was more than 100 µM each time. Also, the TGI with SK-MEL-5 melanoma, in the assay on SR leukemia and in the assay on TK-10 renal was more than 100 µM each time.

As for `C=CCN1C(=O)/C(=C/c2ccc(OC)cc2)N=C1SC1OC(COC(C)=O)C(OC(C)=O)C(OC(C)=O)C1OC(C)=O` (stereo unspecified), the GI50 – broadly, the concentration at which growth is held to half of that of the control – with CAKI-1 renal is 16 µM and > 100 µM; with CCRF-CEM leukemia it was 21.7 µM; in the assay on OVCAR-5 ovarian, 19.3 µM and 56.3 µM; with SK-MEL-2 melanoma it was 21.1 µM and 51.7 µM; in the assay with SK-MEL-28 melanoma, 24.6 µM and > 100 µM; with TK-10 renal, 20.2 µM and > 100 µM. The TGI in the assay with CAKI-1 renal was 33 µM and > 100 µM; in the assay on CCRF-CEM leukemia, more than 100 µM; with HCC-2998 colon, more than 100 µM; with NCI-H23 lung it was more than 100 µM; with NCI/ADR-RES ovarian, more than 100 µM; in the assay on OVCAR-4 ovarian, 15 µM and > 100 µM. For the same compound, the TGI with OVCAR-5 ovarian was 39.7 µM and > 100 µM; with SK-MEL-2 melanoma, 54.8 µM and > 100 µM; with SK-MEL-28 melanoma, more than 100 µM; in the assay on SK-MEL-5 melanoma, 45.2 µM and > 100 µM; with SR leukemia, more than 100 µM; in the assay on TK-10 renal it was 39.6 µM and > 100 µM.

`O=c1[nH]cc(COCC(O)CO)c(=O)[nH]1` (stereo unspecified): the total growth inhibition concentration (TGI) in the assay on CAKI-1 renal, with CCRF-CEM leukemia, in the assay on NCI-H23 lung, in the assay with OVCAR-4 ovarian, in the assay on OVCAR-5 ovarian and in the assay with SK-MEL-2 melanoma was more than 100 µM in each case. Also, the TGI in the assay on SK-MEL-28 melanoma, in the assay on SK-MEL-5 melanoma and in the assay on TK-10 renal was more than 100 µM each time.

As for `CN(C(=O)c1cc2c(s1)sc1c(=O)n(C)c3ccccc3c12)c1ccccc1`, the TGI with CAKI-1 renal is 40.8 µM; with CCRF-CEM leukemia, more than 100 µM; with HCC-2998 colon it was more than 100 µM; in the assay with NCI-H23 lung, 69.5 µM; in the assay with NCI/ADR-RES ovarian, 77.1 µM; in the assay with OVCAR-4 ovarian it was more than 100 µM. Also, the total growth inhibition concentration (TGI) with OVCAR-5 ovarian, in the assay on SK-MEL-2 melanoma, in the assay with SK-MEL-28 melanoma, in the assay with SK-MEL-5 melanoma, in the assay on SR leukemia and in the assay with TK-10 renal was more than 100 µM throughout.

Take `COc1cc(/C=C2\C(=O)N(c3ccc(NC(C)=O)cc3)C(c3ccccc3)S2(=O)=O)cc(OC)c1OC` (stereo unspecified): the TGI with CAKI-1 renal, in the assay with CCRF-CEM leukemia, in the assay on HCC-2998 colon, in the assay with NCI-H23 lung, with NCI/ADR-RES ovarian and with OVCAR-4 ovarian was more than 100 µM in each case. Moreover, the TGI with OVCAR-5 ovarian, in the assay with SK-MEL-2 melanoma, in the assay on SK-MEL-28 melanoma, with SK-MEL-5 melanoma, in the assay with SR leukemia and in the assay on TK-10 renal was more than 100 µM throughout.

Regarding `Cc1ccc(S(=O)(=O)OI(O)CC(F)(F)F)cc1`, the TGI in the assay with CAKI-1 renal, in the assay with CCRF-CEM leukemia, with HCC-2998 colon, in the assay with NCI-H23 lung, in the assay on NCI/ADR-RES ovarian and in the assay with OVCAR-4 ovarian was more than 100 µM in each case. The TGI in the assay on OVCAR-5 ovarian, with SK-MEL-2 melanoma, in the assay with SK-MEL-28 melanoma, in the assay with SK-MEL-5 melanoma, in the assay on SR leukemia and in the assay with TK-10 renal was more than 100 µM throughout.

`O=C(NN1C(=O)C(Cl)C1c1cccc(Cl)c1)c1ccccc1O` (stereo unspecified): the TGI in the assay with CCRF-CEM leukemia, in the assay with NCI-H23 lung, in the assay on OVCAR-4 ovarian, with SK-MEL-2 melanoma, in the assay on SK-MEL-28 melanoma and in the assay on SK-MEL-5 melanoma was more than 100 µM throughout. In the assay with TK-10 renal, this compound gave a TGI of more than 100 µM.

On to `C/C(CC(=O)Nc1ccccc1)=N\NC(N)=S`, for which the total growth inhibition concentration (TGI) in the assay with CCRF-CEM leukemia, in the assay with HCC-2998 colon, with NCI-H23 lung, in the assay on OVCAR-5 ovarian, in the assay with SK-MEL-2 melanoma and in the assay with SK-MEL-28 melanoma was more than 100 µM each time. In addition, the TGI in the assay on SK-MEL-5 melanoma and in the assay with TK-10 renal was more than 100 µM throughout.

Regarding `CC(=O)OC1CC2C(C)(C)OC(=O)CC(OC(C)=O)[C@]2(C)C2CCC3(C)C(=CCC3c3ccoc3)[C@]12C` (stereo partly specified), the TGI was more than 100 µM in the assay on CAKI-1 renal; 87.3 µM in the assay with CCRF-CEM leukemia; 52.4 µM in the assay on HCC-2998 colon; more than 100 µM in the assay on NCI-H23 lung; more than 100 µM in the assay with OVCAR-4 ovarian; more than 100 µM with OVCAR-5 ovarian. Also, the TGI in the assay with SK-MEL-2 melanoma is 25.1 µM; in the assay on SK-MEL-28 melanoma, more than 100 µM; in the assay on SK-MEL-5 melanoma, more than 100 µM; with SR leukemia, 50.8 µM; in the assay on TK-10 renal it was more than 100 µM.

Take `CC1CN=C(NS(=O)(=O)c2cc(C(=O)Nc3ccccc3)c(Cl)cc2S)NN1` (stereo unspecified): the TGI in the assay on CAKI-1 renal, with CCRF-CEM leukemia, in the assay with HCC-2998 colon, with NCI-H23 lung, with NCI/ADR-RES ovarian and in the assay with OVCAR-4 ovarian was more than 100 µM throughout. Moreover, the TGI in the assay with OVCAR-5 ovarian was more than 100 µM; with SK-MEL-2 melanoma, 71.6 µM; with SK-MEL-28 melanoma, more than 100 µM; with SK-MEL-5 melanoma, more than 100 µM; with SR leukemia it was more than 100 µM; in the assay on TK-10 renal it was more than 100 µM.

Consider `OCCSCC/C(=N\N=C(/CCSCCO)c1ccccc1)c1ccccc1`, for which the TGI with CAKI-1 renal, in the assay on CCRF-CEM leukemia, in the assay on HCC-2998 colon, with NCI-H23 lung, in the assay on OVCAR-4 ovarian and in the assay on OVCAR-5 ovarian was more than 100 µM each time. Besides, the TGI in the assay on SK-MEL-2 melanoma, in the assay with SK-MEL-28 melanoma, in the assay on SK-MEL-5 melanoma and in the assay on TK-10 renal was more than 100 µM each time.

`Oc1ccc2ccccc2c1NCn1nc(CCCCCCCCc2nn(CNc3c(O)ccc4ccccc34)c(=S)o2)oc1=S`: the TGI in the assay with CAKI-1 renal, in the assay with HCC-2998 colon, in the assay on NCI-H23 lung, with NCI/ADR-RES ovarian, in the assay with OVCAR-4 ovarian and in the assay on OVCAR-5 ovarian was more than 100 µM throughout. In addition, the TGI in the assay on SK-MEL-2 melanoma, with SK-MEL-28 melanoma, with SK-MEL-5 melanoma and in the assay on TK-10 renal was more than 100 µM throughout.

Consider `C=CCN(N=O)C(=O)N(CCCCC(NC(C)=O)C(=O)NCc1ccccc1)Cc1ccccc1` (stereo unspecified), for which the concentration for total growth inhibition (TGI) was more than 100 µM in the assay with CAKI-1 renal; 80.4 µM in the assay with CCRF-CEM leukemia; more than 100 µM in the assay with NCI-H23 lung; more than 100 µM with OVCAR-4 ovarian; more than 100 µM with OVCAR-5 ovarian; more than 100 µM in the assay on SK-MEL-2 melanoma. The TGI is more than 100 µM in the assay on SK-MEL-28 melanoma, 30 µM in the assay with SK-MEL-5 melanoma and more than 100 µM in the assay with TK-10 renal.

For the compound `CC(CC(C)[C@H]1CCC2[C@H]3C(CC(=O)[C@@]21C)[C@@]1(C)CCC(O)C[C@H]1C[C@@H]3O)C(=O)O` (stereo partly specified), the TGI in the assay on CAKI-1 renal, in the assay with CCRF-CEM leukemia, in the assay on HCC-2998 colon, in the assay with NCI-H23 lung, with NCI/ADR-RES ovarian and with OVCAR-4 ovarian was more than 100 µM in each case. Moreover, the TGI with OVCAR-5 ovarian, in the assay with SK-MEL-2 melanoma, with SK-MEL-28 melanoma, in the assay on SR leukemia and with TK-10 renal was more than 100 µM each time.

Source of the values: PubChem BioAssay (NCI).
